Test system: CD14^+ dendritic cells
Assay: FACS evaluation of dendritic cell maturation markers CD40, CD80, MHCII and CD86
Type: cell-based, Human
Experimental: ISOLATION OF CD14^+ MONOCYTES FROM PBMCs: On Day 1 of the study, PBMC cells were obtained from a human donor according to (1a)-(1d) above. Monocytes were then isolated from these PBMCs on the same day (Day 1) according to steps (2a)-(2k) as follows: (2a) The number of the PBMC cells was determined. (2b) The cell suspension was centrifuged at 300×g for 10 minutes; and the supernatant was aspirated completely. (2c) The cell pellet was re-suspended in 80 μL of FACS buffer per 10^7 total cells. (2d) Per 10^7 total cells, 20 μL of CD14 MicroBeads were added. (2e) Mix well and incubate for 15 minutes in the refrigerator (2 to 8° C.). (2f) The cells were washed by adding 1 to 2 mL of FACS buffer per 10^7 cells and centrifuged at ×1500 rpm for 10 min. (2g) The cells were re-suspended up to 10^8 cells in 500 μL of FACS buffer. (2h) The column was placed in magnetic field of a suitable MACS Separator. (2i) The column was prepared by rinsing with 3 mL of FACS buffer. (2j) The cell suspension was applied onto the column. Unlabeled cells that pass through were collected and the column was washed for three times each with 3 mL of FACS buffer. Total effluent, which was the unlabeled cell fraction, was collected. Washing steps were performed by adding FACS buffer three times. New buffer was added only when the column reservoir became empty. (2k) The column was then removed from the separator and placed on a suitable collection tube. 5 mL of FACS buffer was pipetted onto the column. The magnetically labeled cells were immediately flushed out by firmly pushing the plunger into the column. This fraction represented the CD14 positive monocytes.
DIFFERENTIATION OF MONOCYTES INTO CD14^+ DENDRITIC CELLS: From the CD14 positive monocytes obtained from (2k), dendritic cells (DCs) were differentiated according to steps (2l)-(2p) as follows: (21) 5×10^6 cells were re-suspended per 5 mL of ImmunoCult™ DC Differentiation Medium and mixed well. Then 5 mL of the cell suspension was added to a T-25 cm^2 flask and the cells were incubated for 3 days at 37° C. and 5% CO2. (2m) Meanwhile, in parallel, the monocytes were treated with 3, 1, 0.3, 0.1, 0.01 and 0 μM plinabulin, respectively, in the wells of a 6-well plate and incubated for 3 days. (2n) On Day 4, the medium was removed from the T-25 cm^2 flask by pipetting and added to a 14-mL centrifuge tube. 5 mL of fresh ImmunoCult™ DC Differentiation Medium was quickly added to the culture flask. (2o) The 14 mL tube containing medium and cells (from step (2n)) was centrifuged at 300×g for 10 min. The supernatant was removed and discarded. Cells were resuspended in a small volume (i.e. 50 μL or up to 10% of the original volume) of fresh ImmunoCult™ DC Differentiation Medium and returned to the culture flask in order to save non-adherent or loosely adherent cells. The cells were then incubated at 37° C. for 2 days. (2p) Also on Day 4, 90% differentiation medium for the DCs were removed from the 6-well plate, and 90% fresh differentiation medium were added. The cells were treated with 3, 1, 0.3, 0.1, 0.01 and 0 μM plinabulin as stated above in (2m) (Study Arm #1). After another 2 days incubation, the dendritic cell maturation was evaluated by FACS for CD40, CD80, MHCII and CD86. The rest cells continued without treatment to steps (4a)-(4d) below for MLR assay. […]

[1] = treated during differentiation or maturation

SMILES: CC(C)(C)c1[nH]cnc1/C=c1\[nH]c(=O)/c(=C/c2ccccc2)[nH]c1=O [Plinabulin, (3Z,6Z)-3-Benzylidene-6-{[5-(2-methyl-2-propanyl)-1H-imidazol-4-yl]methylene}-2,5-piperazinedione]
- CD86 expression on DCs (cells treated during DC maturation (Study Arm #A2)): increased CD86 expression on DCs
- CD86 expression on DCs (cells treated during differentiation from CD14 cells (Study Arm #A1)): increased CD86 expression on DCs
- CD40 expression on DCs [1]: no discernible increase
- CD80 expression on DCs [1]: no discernible increase
- MHCII expression on DCs [1]: no discernible increase
